Assay results published in US6265445A, “Antiarrhythmic compounds” (priority 1997, dated 2001).
Structures can show the parent of a compound that is named as a salt. Where two headings read alike, the source gives them in different places.

Key:
[1] = test system: isolated right ventricular trabecule of dog heart; experiment: Extracellular electrophysiological measurements: impulse conduction time and effective refractory period; design: species or system mongrel dogs; settings: for activation at 30 µM: Canis lupus familiaris
[2] = test system: occlusion and reperfusion arrhythmias in anaesthetized dogs; experiment: Occlusion and reperfusion arrhythmias following acute coronary ligation in anaesthetized dogs; assay type: in vivo, mongrel dogs; settings: 3 mg/kg i.v.
Method: The method used is essentially in agreement with the method of Vegh et al. [Basic Res. Cardiol. 82, 159-171 (1987)].
Mongrel dogs of both sexes weighing 10 to 20 kg each were anaesthetized by a mixture of chloralose (60 mg/kg) and urethane (200 mg/kg) and the animals were maintained on artificial respiration. After opening the chest, the ramus descendens anterior (LAD) branch of the left coronary artery of heart was prepared from the first main collateral branch and a loose loop from surgical thread was placed around it. During our experiments, the blood pressure of the animal was measured by using a cannule introduced to the left femoral artery and even the standard ECG parameters by using needle electrodes were continuously registered. The arrhythmias were induced by the occlusion for 25 minutes of a loop placed round the LAD. The survival after lethal arrhythmias and frequency of the arrhythmias were registered. The 28 dogs used in the experiments were divided into three groups. The compound of Example 15 was administered in a dose of 1 mg/kg to 8 animals; d-sotalol was given in a dose of 3 mg/kg to 10 animals by a single intravenous injection 10 minutes before compression of the coronary vessel. The control dogs (10 animals) received 5 ml of physiological saline solution in the same manner as the treated animals.
By using this method it can be stated whether the substance investigated would be effective for protection against arrhythmias following the ligation of the coronary artery.

[3] = test system: arrhythmias following coronary artery occlusion in conscious rats; experiment: Occlusion arrhythmia following acute coronary artery ligation in conscious rats; assay type: in vivo, male rats; settings: for Occurrence of arrhythmias: Brady / Occurrence of arrhythmias: Free (no arrhythmia was observed) / Occurrence of arrhythmias: Other / Occurrence of arrhythmias: VF / Occurrence of arrhythmias: VT: first 15 minutes; for Arrhythmia Score: score system from 0 to 6
Text: The method used is essentially in agreement with the method of Lepran et al. [J. Pharmacol. Methods 9, pp. 219-230 (1983)].
During a previous operation, male rats weighing 340 to 360 g each were fitted with a loose surgical thread loop around the left descending coronary vessel, at about 2 mm from its origin. The ends of the loop thread were led out from the chest under the skin, then the surgical wound was closed. After complete recovery from this previous operation (7 to 8 days) acute myocardial ischaemia was induced by contracting the loose ligation in the conscious, freely moving animals. ECG was continuously registered by using bipolar chest electrodes before the ligation of the coronary artery and during the first 15 minutes of ischaemia. The ratio of survivals was determined and the developed arrhythmias were evaluated according to the Lambeth Convention [Walker et al.: Cardiovasc. Res. 22, 447-455 (1988)]. For evaluation of the arrhythmic episodes a score system was also employed by considering the severity of episodes on the basis of a score system from 0 to 6. Both d-sotalol and the substance of Example 15, respectively, were suspended in 1% methylcellulose and administered orally through a gastric sound at 1 hour before the compression of the coronary vessel. The control animals received a treatment with the same volume, i.e. 5 ml/kg of vehicle.

[4] = treatment group; cited from earlier work

Compound `CC(C)NCC(O)c1ccc(NS(C)(=O)=O)cc1` (single isomer, unassigned) [d-Sotalol, d-N-[4-[1-hydroxy-2-(1-methylethylamino)ethyl]phenyl]methanesulfonamide hydrochloride] has an activation at 30 µM ([1]; 1 Hz, read-out: Prolongation (%) of ERP) of 12.4%, an activation at 30 µM ([1]; 1 Hz, read-out: Prolongation (%) of impulse conduction time) of -4.5 ± 5.1% and an activation at 30 µM ([1]; 3 Hz, read-out: Prolongation (%) of ERP) of 7.1%. For the same compound, the activation at 30 µM ([1]; 3 Hz, read-out: Prolongation (%) of impulse conduction time) was -3.7 ± 4.7%, the “effect on effective refractory period (in words)” value ([1]; concentrations of Table 1) was “showed a considerable effect only on the ERP” and the “Complete survival, animals” value [2] was 5/10. The “Complete survival, percent” value [2] was 50%, the “ES (extrasystole)” value ([2]; occlusion) was 128 ± 14 and the “VF (ventricular fibrillation), animals” value ([2]; occlusion) was 3/10. The “VF (ventricular fibrillation), percent” value ([2]; occlusion) was 30%, the “VT (ventricular tachycardia), animals” value ([2]; occlusion) was 5/10 and the “VT (ventricular tachycardia), percent” value ([2]; occlusion) was 50%. The “VF (ventricular fibrillation), animals” value ([2]; reperfusion) was 2/7, the “VF (ventricular fibrillation), percent” value ([2]; reperfusion) was 29% and the “antiarrhythmic effect (in words)” value ([3]; oral administration) was “proved to be inactive”. The “Survival 15 minutes” value ([3]; p.o. 25 mg/kg) was 2/29, the “Survival 16 hours” value ([3]; p.o. 25 mg/kg) was 2/29 and the “Occurrence of arrhythmias: Brady” value ([3]; p.o. 25 mg/kg) was 2/29. For the same compound, the “Occurrence of arrhythmias: Free (no arrhythmia was observed)” value ([3]; p.o. 25 mg/kg) was 0/0, the “Occurrence of arrhythmias: Other” value ([3]; p.o. 25 mg/kg) was 3/43 and the “Occurrence of arrhythmias: VF” value ([3]; p.o. 25 mg/kg) was 7/100. For the same compound, the “Occurrence of arrhythmias: VT” value ([3]; p.o. 25 mg/kg) was 7/100, the “Arrhythmia Score” value ([3]; p.o. 25 mg/kg) was 5.71 ± 0.18 and the “Survival 15 minutes” value ([3]; p.o. 50 mg/kg) was 1/10. The “Survival 16 hours” value ([3]; p.o. 50 mg/kg) was 0/0, the “Occurrence of arrhythmias: Brady” value ([3]; p.o. 50 mg/kg) was 1/10 and the “Occurrence of arrhythmias: Free (no arrhythmia was observed)” value ([3]; p.o. 50 mg/kg) was 0/0. The “Occurrence of arrhythmias: Other” value ([3]; p.o. 50 mg/kg) was 4/40, the “Occurrence of arrhythmias: VF” value ([3]; p.o. 50 mg/kg) was 1/100 and the “Occurrence of arrhythmias: VT” value ([3]; p.o. 50 mg/kg) was 10/100. For the same compound, the “Arrhythmia Score” value ([3]; p.o. 50 mg/kg) was 5.90 ± 0.10 and the “mortality in clinical trials (in words)” value [4] was “increase in mortality ascribable to the proarrhythmic effect”.
